Values quoted from earlier work in patent US20220370444A1 (priority 2019, published 2022).

Columns and labels:
[1] = not told
[2] = in vivo
[3] = system: TB; details: after two weeks of oral administration

SMILES: CC(C)/N=c1\cc2n(-c3ccc(Cl)cc3)c3ccccc3nc-2cc1Nc1ccc(Cl)cc1 [clofazimine]
- membrane permeability [1]: high
- absorption in humans after oral administration [2]: 45-62%
- clinical benefit [3]: no clinical benefit
